In publication PMC8860565, “Molecular Insights into How the Dimetal Center in Dihydropyrimidinase Can Bind the Thymine Antagonist 5-Aminouracil: A Different Binding Mode from the Anticancer Drug 5-Fluorouracil” (Bioinorganic Chemistry and Applications, 2022):
Read-outs that look alike come from different tables or passages of the source.

Legend:
[1] = tested on: biphasic interphase-mitotic (IM) cells; parameters: method as in PMID 32328702; details: cited from earlier work
[2] = target: T1, PaDHPase-N337A (Pseudomonas aeruginosa, UniProt Q9I676, N337A); test: Fluorescence quenching titration of PaDHPase-N337A mutant; format: binding
T1 construct: made in house; host or cells: Escherichia coli BL21 (DE3) (stated for the wild type; mutants purified by the same protocol)
From the text: (§1) The PaDHPase mutants were generated according to the QuikChange Site-Directed Mutagenesis kit protocol (Stratagene; La Jolla, CA, USA). The wild-type plasmid pET21b-PaDHPase was used as a template. The presence of the mutation was verified by DNA sequencing in each construct. The recombinant mutant proteins were purified using the protocol for the wild-type PaDHPase by Ni^2+-affinity chromatography (Table 1).
(§2) Through the fluorescence quenching analysis, the Kd value of the purified PaDHPase was determined. An aliquot of 5-AU was added into the solution containing PaDHPase (0.8 μM) and 50 mM HEPES at pH 7.0. The decrease in the intrinsic fluorescence of PaDHPase was measured at 336 nm upon excitation at 279 nm and 25°C with a spectrofluorimeter (Hitachi F-2700; Hitachi High-Technologies, Japan). The Kd was obtained using the equation: ΔF = ΔFmax − Kd(ΔF/[5-AU]).
(§3) Figure 4 Fluorescence titration of PaDHPase with 5-AU. (a) The fluorescence emission spectra of PaDHPase with 5-AU of different concentrations (0–300 μM). The decrease in intrinsic fluorescence of protein was measured at 336 nm upon excitation at 279 nm with a spectrofluorimeter. […] (b) The fluorescence emission spectra of PaDHPase-Y155A with 5-AU of different concentrations (0–300 μM). (c) The fluorescence emission spectra of PaDHPase-S289A with 5-AU. (d) The fluorescence emission spectra of PaDHPase-N337A with 5-AU. (e) The fluorescence emission spectra of PaDHPase-C318A with 5-AU. (f) The fluorescence emission spectra of Znα-PaDHPase with 5-AU. (g) An aliquot amount of 5-AU was added to the enzyme solution for determining the Kd. The Kd was obtained by the equation: ΔF = ΔFmax − Kd(ΔF/[5-AU]). Data points are an average of 2–3 determinations within 10% error.
(§4) 5-AU interacts with the main chains of residues Ser289 and Asn337 and the side chain of residue Tyr155. To investigate the contribution of individual amino acid residues to 5-AU binding, alanine substitution mutants (Table 2) were constructed and analyzed by fluorescence quenching (Figures 4(b)–4(d)).

[3] = target: T2, PaDHPase-C318A (Pseudomonas aeruginosa, UniProt Q9I676, C318A); test: Fluorescence quenching titration of PaDHPase-C318A mutant; format: binding
T2 construct: made in house; host or cells: Escherichia coli BL21 (DE3) (stated for the wild type; mutants purified by the same protocol)
From the text: as §1, §2, §3
Structurally, Cys318 is involved in 5-FU [44] but not 5-AU. For comparison, the C318A mutant was also analyzed by fluorescence quenching (Figure 4(e)). […] The abilities of the wild-type PaDHPase and the C318A mutant to bind 5-AU are approximately equal. Thus, Cys318 is not essential for 5-AU binding.

[4] = target: T3, PaDHPase-Y155A (Pseudomonas aeruginosa, UniProt Q9I676, Y155A); test: Fluorescence quenching titration of PaDHPase-Y155A mutant; format: binding
T3 construct: made in house; host or cells: Escherichia coli BL21 (DE3) (stated for the wild type; mutants purified by the same protocol)
From the text: as §1
as §2, with “The Kd was obtained using the equation: ΔF = ΔFmax − Kd(ΔF/[5-AU]).” left out
as §3, with “(f) The fluorescence emission spectra of Znα-PaDHPase with 5-AU. (g) An aliquot amount of 5-AU was added to the enzyme solution for determining the Kd. The Kd was obtained by the equation: ΔF = ΔFmax − Kd(ΔF/[5-AU]). Data points are an average of 2–3 determinations within 10% error.” left out

[5] = target: T4, PaDHPase-S289A (Pseudomonas aeruginosa, UniProt Q9I676, S289A); test: Fluorescence quenching titration of PaDHPase-S289A mutant; format: binding
T4 construct: made in house; host or cells: Escherichia coli BL21 (DE3) (stated for the wild type; mutants purified by the same protocol)
From the text: as §1, §2, §3, §4

[6] = target: T5, Znα-PaDHPase (mono-Zn PaDHPase) (Pseudomonas aeruginosa, UniProt Q9I676); test: Fluorescence quenching titration of mono-Zn PaDHPase; format: binding
T5 construct: made in house; host or cells: Escherichia coli BL21 (DE3)
Description: The mono-Zn PaDHPase was prepared using the protocol described previously. Purified PaDHPase was dialyzed against a chelating buffer (50 mM MES, 50 mM EDTA, and 15 mM 8-HQSA, pH 6.5; Buffer B) at room temperature for 3 days. The resultant enzyme solution was then dialyzed against Buffer A.
as §2, §3
To confirm the role of Znβ in 5-AU binding and to compare the binding contribution with other mutant proteins (Table 3), we produced mono-Zn PaDHPase (Znα-PaDHPase) for binding analysis. […] The binding of 5-AU to Znα-PaDHPase was also analyzed by the fluorescence quenching method (Figure 4(f)). Upon the addition of 300 μM 5-AU, the intrinsic fluorescence of Znα-PaDHPase was quenched by 49.3%. The Kd value of Znα-PaDHPase for 5-AU binding was calculated to be 281.5 ± 9.0 μM from the titration curve (Figure 4(g)). Based on the Kd values, the strength of complex formation with 5-AU followed the following order: the wild-type enzyme ≈ C318A > N337A > Y155A ≈ S289A > Znα-PaDHPase (Table 3).

[7] = target: T6, Pseudomonas aeruginosa DHPase (PaDHPase) (Pseudomonas aeruginosa, UniProt Q9I676); test: Fluorescence quenching titration of wild-type PaDHPase; format: binding
T6 construct: made in house; host or cells: Escherichia coli BL21 (DE3)
Description: as §2
Prior to this study, whether 5-AU could bind to DHPase remained unknown. To confirm if PaDHPase is capable of binding 5-AU, we used the fluorescence quenching method to determine the binding ability of PaDHPase (Figure 4). Quenching is a complex formation process that decreases the fluorescence intensity of protein. […] When 5-AU was titrated into the PaDHPase solution, the intrinsic fluorescence of the protein was progressively quenched. Upon the addition of 300 μM 5-AU, the intrinsic fluorescence of PaDHPase was quenched by 87.3%.
as §3

[8] = target: T6, Pseudomonas aeruginosa DHPase (PaDHPase); details: read-out: Kd value of PaDHPase bound to 5-FU; wild-type PaDHPase ref 44; cited from earlier work

T6 sequence (Q9I676 whole entry): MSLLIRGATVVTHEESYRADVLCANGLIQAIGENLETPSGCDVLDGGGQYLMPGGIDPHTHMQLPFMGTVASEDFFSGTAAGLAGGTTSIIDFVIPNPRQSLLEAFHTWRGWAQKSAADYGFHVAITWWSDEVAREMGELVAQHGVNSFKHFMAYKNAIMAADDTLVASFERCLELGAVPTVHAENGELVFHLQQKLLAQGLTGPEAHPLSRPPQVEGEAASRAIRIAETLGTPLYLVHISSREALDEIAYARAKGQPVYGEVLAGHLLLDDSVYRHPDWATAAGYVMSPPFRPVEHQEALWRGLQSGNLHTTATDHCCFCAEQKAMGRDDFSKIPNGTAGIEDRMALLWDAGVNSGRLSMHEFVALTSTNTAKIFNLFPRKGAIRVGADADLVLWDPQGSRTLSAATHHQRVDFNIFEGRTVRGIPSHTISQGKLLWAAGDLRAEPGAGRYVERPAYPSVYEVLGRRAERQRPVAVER
T5 sequence (Q9I676 whole entry): as above
T4 sequence (Q9I676 whole entry S289A): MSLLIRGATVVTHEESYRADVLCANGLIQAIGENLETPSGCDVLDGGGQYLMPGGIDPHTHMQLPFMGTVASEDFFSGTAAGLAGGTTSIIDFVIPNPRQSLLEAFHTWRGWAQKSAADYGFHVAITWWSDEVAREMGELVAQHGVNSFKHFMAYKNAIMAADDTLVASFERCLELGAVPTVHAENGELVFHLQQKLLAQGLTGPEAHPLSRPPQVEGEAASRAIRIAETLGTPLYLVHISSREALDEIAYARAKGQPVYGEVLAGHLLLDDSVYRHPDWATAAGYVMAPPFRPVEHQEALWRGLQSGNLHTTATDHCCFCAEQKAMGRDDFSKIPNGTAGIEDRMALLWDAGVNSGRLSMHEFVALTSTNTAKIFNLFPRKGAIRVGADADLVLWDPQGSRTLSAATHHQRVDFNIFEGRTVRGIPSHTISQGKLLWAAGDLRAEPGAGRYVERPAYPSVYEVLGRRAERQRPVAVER
T2 sequence (Q9I676 whole entry C318A): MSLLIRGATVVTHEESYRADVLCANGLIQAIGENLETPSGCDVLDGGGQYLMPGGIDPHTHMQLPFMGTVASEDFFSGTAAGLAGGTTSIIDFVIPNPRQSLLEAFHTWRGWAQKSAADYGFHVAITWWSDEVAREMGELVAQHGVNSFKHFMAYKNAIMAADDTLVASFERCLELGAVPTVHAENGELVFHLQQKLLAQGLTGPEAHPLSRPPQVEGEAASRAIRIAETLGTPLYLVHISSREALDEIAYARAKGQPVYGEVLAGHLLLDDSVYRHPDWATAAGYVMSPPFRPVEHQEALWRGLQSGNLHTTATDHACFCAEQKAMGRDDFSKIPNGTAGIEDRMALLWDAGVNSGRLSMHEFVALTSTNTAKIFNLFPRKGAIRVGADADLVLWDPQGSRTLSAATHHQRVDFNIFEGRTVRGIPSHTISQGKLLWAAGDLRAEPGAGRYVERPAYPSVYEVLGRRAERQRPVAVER
T1 sequence (Q9I676 whole entry N337A): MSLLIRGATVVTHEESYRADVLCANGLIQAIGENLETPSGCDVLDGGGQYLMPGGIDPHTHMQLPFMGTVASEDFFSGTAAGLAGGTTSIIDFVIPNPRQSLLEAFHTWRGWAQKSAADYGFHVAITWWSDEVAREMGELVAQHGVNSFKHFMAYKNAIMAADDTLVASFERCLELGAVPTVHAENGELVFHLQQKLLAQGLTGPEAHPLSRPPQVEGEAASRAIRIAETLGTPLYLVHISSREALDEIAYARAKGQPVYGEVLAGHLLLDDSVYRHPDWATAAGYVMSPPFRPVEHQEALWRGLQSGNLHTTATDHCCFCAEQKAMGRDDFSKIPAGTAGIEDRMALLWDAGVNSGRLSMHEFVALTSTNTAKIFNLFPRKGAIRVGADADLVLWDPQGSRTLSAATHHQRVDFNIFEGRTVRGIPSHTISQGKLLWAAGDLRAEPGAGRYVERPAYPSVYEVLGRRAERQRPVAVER
T3 sequence (Q9I676 whole entry Y155A): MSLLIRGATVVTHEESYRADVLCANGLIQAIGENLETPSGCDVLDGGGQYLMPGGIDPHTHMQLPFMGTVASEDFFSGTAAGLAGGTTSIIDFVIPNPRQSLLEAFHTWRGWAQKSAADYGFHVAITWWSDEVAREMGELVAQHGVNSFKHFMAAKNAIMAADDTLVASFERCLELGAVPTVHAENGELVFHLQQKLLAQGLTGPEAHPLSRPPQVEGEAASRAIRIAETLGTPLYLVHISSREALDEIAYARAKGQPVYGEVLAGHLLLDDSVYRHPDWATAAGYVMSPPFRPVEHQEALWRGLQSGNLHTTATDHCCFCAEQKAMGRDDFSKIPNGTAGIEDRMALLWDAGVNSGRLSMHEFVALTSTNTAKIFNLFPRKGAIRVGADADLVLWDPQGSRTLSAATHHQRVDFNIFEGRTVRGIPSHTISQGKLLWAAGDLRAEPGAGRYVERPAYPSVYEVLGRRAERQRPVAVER

In the case of `Nc1c[nH]c(=O)[nH]c1=O` [5-AU, 5-aminouracil], the “induction of biphasic interphase-mitotic (IM) cells” value [1] is listed as “significantly induce biphasic interphase-mitotic (IM) cells”, the Kd [2] is listed as 192 ± 8 µM and the λ em shift ([2]; PaDHPase-N337A) is listed as 3.5 nm. For the same compound, the λ max ([2]; PaDHPase-N337A, emission maximum before and after adding 5-AU) was “From 336 to 339.5”, the Kd [3] was 103 ± 3.1 µM and the λ em shift ([3]; PaDHPase-C318A) was 6.0 nm. The λ max ([3]; PaDHPase-C318A, emission maximum before and after adding 5-AU) was “From 336 to 342”, the Kd [4] was 247 ± 4 µM and the λ max ([4]; PaDHPase-Y155A, emission maximum before and after adding 5-AU) was “From 336.5 to 342”. For the same compound, the Kd [5] was 256 ± 3.2 µM, the λ em shift ([5]; PaDHPase-S289A) was 2.0 nm and the λ max ([5]; PaDHPase-S289A, emission maximum before and after adding 5-AU) was “From 337 to 339”. For the same compound, the Kd [6] was 281 ± 9 µM, the λ em shift ([6]; Znα-PaDHPase) was 1.5 nm and the “Quenching (%) of intrinsic fluorescence” value ([6]; Znα-PaDHPase (mono-Zn), 300 μM 5-AU) was 49.3%. The λ max ([6]; Znα-PaDHPase, emission maximum before and after adding 5-AU) was “From 335 to 336.5”, the Kd [7] was 97.7 ± 2 µM and the “Quenching (%) of intrinsic fluorescence” value ([7]; wild-type PaDHPase, 300 μM 5-AU, emission 336 nm, excitation 279 nm) was 87.3%. For the same compound, the λ max ([7]; wild-type PaDHPase, emission maximum before and after adding 5-AU) was “From 336.5 to 343” and the λ em shift ([7]; wild-type PaDHPase, red shift on adding 5-AU) was roughly 6.5 nm.
In the case of `O=c1[nH]cc(F)c(=O)[nH]1` [5-FU, 5-fluorouracil], the “induction of biphasic interphase-mitotic (IM) cells” value [1] is given as “no induction of IM cells was detected” and the Kd [8] is given as 133 ± 8.5 µM.
